“Also recorded” adds a separate entry of the source.
Assays:
[1] = tested on: Salmonella typhimurium TA 100; assay: Ames test, plate incorporation, his- to his+ reversion
Description: Preparation of glycated compounds was performed according to Kim et al. (1991). In brief, D-glucose (1M) and each of the following: L-carnosine, L-lysine, L-alanine (all 1M) were dissolved in distilled water, the pH adjusted to 7 and the mixtures heated at 100° C. for 80 min. The solutions (50 μl and 250 μl ) were evaluated against strain TA 100 of Salmonells typhimurium using the plate incorporation method (Maron & Ames, 1983) with or without metabolic activation by a standard rat liver microsomal (S-9) preparation.
Salmonella tyrphimurium TA 100 indicator strain his^- to his^+ reversion system. Data represent the mean number of revertants per plate and their standard deviation for the test solutions and controls with and without metabolic stimulation by rat liver microsomal (S-9) preparation.

mammals = conditions: cited from earlier work
[2] = tested on: streptozotocin induced diabetic rat; assay: Albuminuria, glycated haemoglobin and blood glucose in diabetic rats; format: in vivo; conditions: week 8
Description: (§1) Male Sprague-Dawley rats weighing 200-250 g and 6 weeks of age were randomised to the following three treatment groups: control, diabetic, and carnosine-treated diabetic rats. Diabetes was induced with streptozotozen STZ(60 mg/kg body weight in citrate buffer, pH 4.5, i.v.), and all animals with plasma glucose levels >20 mM after 1 week were included in the study. Diabetic rats were randomised to receive either no therapy or 2% carnosine in drinking water.

[3] = tested on: Male New Zealand white cross rabbits fed a high cholesterol (2%) diet; assay: Atherosclerotic plaque formation in aorta of cholesterol-fed rabbits; format: in vivo, rabbit; conditions: 8 weeks
Description: (§2) Male New Zealand white cross rabbits fed a high cholesterol (2%) diet were randomised to control or carnosine treatment 2% and plasma was assayed for cholesterol and triglycerides and carnosine. All animals received 100 g of food pellets/day and free access to water.
(§3) At the end of the 8 week treatment period, the rabbits were anaesthetised with pentobarbitone (325 mg/kg) and the total aorta removed. The arch, thoracic and abdominal regions were isolated by cutting the aorta circumferentially 1.0 cm proximal to the first pair of intercostal arteries and 0.3 cm above the coeliac artery. The adventitia was carefully dissected away, and the artery longitudinally cut to expose the intimal surface. The aorta was fixed in 10% buffered formalin for 48 hours. The lipid plaques in these vessels were then stained using Sudan IV and mounted with an aqueous mounting medium (Kaiser's Glycerol Jelly). The lesioned areas were directly traced from the mounted sections using an image analyser (Eye Com 850 image processor). Computer-aided planimetry was used to macroscopically determine the percentage of the affected area. Representative segments of atherosclerotic plaque were removed for confirmation by light microscopy. Results are expressed as mean ±SEM.
Coronary heart disease is one of the most common causes of deaths in diabetics and non-diabetics alike. […]

[4] = Body weight and organ weights of cholesterol-fed rabbits; format: in vivo, rabbit
Description: as §2, §3

ovalbumin = assay: Glycation of ovalbumin by DHA with anti-glycator, gel filtration on Superose 6; format: biochemical; conditions: for effectiveness as anti-glycator, in words: ovalbumin + DHA, 60° C., 7 hours
Description: Gelfiltration Chromatography of Glycated Proteins HPLC Specifications:
COLUMN Superose 6, Pharmacia
SAMPLE: 100μ of Protein Sample (Approximately 100 μg)
Calibration was performed using Pharmacia high molecular weight (HMW) and low molecular weight (LMW) calibration kit.
To compare the effect of both carnosine and aminoguanidine on glycation bovine serum albumin (BSA) and ovalbumin was incubated with a constant amount of DHA and varying concentrations of either anti-glycator at 60° C. At the start of the reaction and after seven hours aliquots were taken and the progress of the reaction analysed by gel filtration on a Superose 6 column. Crosslinking or fragmentation of protein became clearly visible as a change in retention time compared to the untreated protein used as control. Some compounds eluted after theoretical retention time for the smallest compound. They tend to interfere with the column resin even at high ionic strength and presence of a detergent (Tween 20). They are not necessary small compounds but rather highly charged and reactive. […] In all aminoguanidine samples uncharacterised reaction products are formed predominantly at high concentrations (described as low molecular weight form "LMW" because the retention time is longer then observed for all other compounds). […] LMW were also observed when ovalbumin was replaced by bovine serum albumin in the incubation mixture (not shown). The LMW forms were never present in the camosine samples. A good measure for the effectiveness of an
Legend: ovalbumin was incubated with DHA for 7 hours in the presence of
various concentrations of either carnosine or aminoguanidine. Reaction
products were separated on a gelfiltration column (Superose 6) and peaks
grouped according to their retention times: HMW, high molecular weight
(15-30 min); albumin monomer (35 min); and late eluting compounds LMW, lo
molecular weight (>40 min). Carnosine and aminoguanidine concentration
[control] 0 mM, [A] 600 mM, [B] 300 mn, [C] 100 mM, [D] 50 mM.

bovine serum albumin = assay: Dihydroxyacetone-induced modification (non-enzymic glycosylation, gel formation) of bovine serum albumin; format: biochemical; conditions: BSA 50 mg/ml, 250 mM dihydroxyacetone, 250 mM L-carnosine, 23° C., 4 weeks
Description: Physiological concentrations of bovine serum albumin (50 mg/ml in 50 mM Na-phosphate buffer pH 7.0) were incubated with or without 250 mM dihydroxyacetone in the presence and absence of 250 mM L-carnosine at 23° C. for 4 weeks. The experiment was performed under sterile conditions and the ionic strength was the same in all vials.

[5] = tested on: streptozotocin induced diabetic rat; assay: Formation of cataracts in streptozotocin induced diabetic rats; format: in vivo; conditions: after 8 week on carnosine diet (56 days), 2% in drinking water
Description: as §1
Cataract is an opacification of the ocular lens sufficient to impair vision. Diabetes has been associated with cataract for many years and many laboratory experiments support the view that diabetes is the cause of one form of cataract. Diabetes in animals can be induced by streptozotozin and opacity of the lens starts to develop by 20 days after injection but dense opacities appear only after about 100 days depending on age at injection.
In cataract adducts of sugars to proteins including lens proteins have been identified and quantified. In most tissues there is little accumulation of late Maillard products even in diabetes but proteins in the lens nucleus have time not only to accumulate early glycation products but also for them to change into yellow Maillard products. […] Since this was measured at 56 days, the half way mark of the experiment, the trend indicates a reduction in cataract formation by carnosine feeding.

diabetic models = conditions: 30 weeks of feeding; cited from earlier work

CC(=O)Nc1ccc2c(c1)Cc1ccccc1-2 [2AAF, reference compound]
Revertants per Plate with TA 100, With S-9 ([1]; positive control, dose not given): 500

NCCC(=O)N[C@@H](Cc1cnc[nH]1)C(=O)O [carnosine, β-alanyl-L-histidine]
toxicity, in words (mammals; in vivo): virtually non-toxic
level that can be administered (mammals; mammals): 5-10 g/kg body weight
Blood Glucose (mean + SEM) [2]: 22.63 ± 3.00 mM
Percent Glycated Haemoglobin (HbAlc) [2]: 4.49 ± 0.14%
atherosclerotic plaque formation, in words [3]: can reduce but not prevent plaque formation
Revertants per Plate with TA 100, With S-9 ([1]; Dose 50 μl): 179 ± 15
Revertants per Plate with TA 100, Without S-9 ([1]; Dose 50 μl): 154 ± 14
Revertants per Plate with TA 100, With S-9 ([1]; Dose 250 μl): 149 ± 13
Revertants per Plate with TA 100, Without S-9 ([1]; Dose 250 μl): 158 ± 11
mutagenicity ([1]; TA 100, with or without S-9): not mutagenic
body weight versus control, in words ([4]; 8 week treatment period): no difference
weight of various organs versus control, in words ([4]; 8 weeks): No difference
Body Weight ([4]; Week 0): 3.33 ± 0.09 kg
Body Weight ([4]; Week 8): 2.68 ± 0.12 kg
Weight of organs, Heart ([4]; after 8 weeks treatment): 6.12 ± 0.27 g
Weight of organs, Kidney ([4]; after 8 weeks treatment): 17.53 ± 0.69 g
Weight of organs, Liver ([4]; after 8 weeks treatment): 124.40 ± 6.36 g
Percent Area of Chromatogram, HMW (ovalbumin; after 7 hours, [A] 600 mM): 9%
Percent Area of Chromatogram, LMW (ovalbumin; after 7 hours, [A] 600 mM): 0%
Percent Area of Chromatogram, Monomer (ovalbumin; after 7 hours, [A] 600 mM): 91%
Percent Area of Chromatogram, HMW (ovalbumin; after 7 hours, [B] 300 mn): 6%
Percent Area of Chromatogram, LMW (ovalbumin; after 7 hours, [B] 300 mn): 0%
Percent Area of Chromatogram, Monomer (ovalbumin; after 7 hours, [B] 300 mn): 94%
Percent Area of Chromatogram, HMW (ovalbumin; after 7 hours, [C] 100 mM): 3%
Percent Area of Chromatogram, LMW (ovalbumin; after 7 hours, [C] 100 mM): 0%
Percent Area of Chromatogram, Monomer (ovalbumin; after 7 hours, [C] 100 mM): 97%
Percent Area of Chromatogram, HMW (ovalbumin; after 7 hours, [D] 50 mM): 25%
Percent Area of Chromatogram, LMW (ovalbumin; after 7 hours, [D] 50 mM): 0%
Percent Area of Chromatogram, Monomer (ovalbumin; after 7 hours, [D] 50 mM): 75%
effectiveness as anti-glycator, in words (ovalbumin): more effective at all concentrations compared to aminoguanidine
effectiveness as anti-glycator, in words (ovalbumin; listed as Carnosine): reduced formation of high molecular weight compounds and was slightly more effective at low concentration compared to aminoguanidine
Percent Area of Chromatogram, HMW (ovalbumin; t0 hours, [A] to [D] 600-50 mM): 0%
Percent Area of Chromatogram, LMW (ovalbumin; t0 hours, [A] to [D] 600-50 mM): 0%
Percent Area of Chromatogram, Monomer (ovalbumin; t0 hours, [A] to [D] 600-50 mM): 100%
Resultant effects (appearance of albumin incubation) (bovine serum albumin): dark brown, fluid; also recorded: remained fluid
lens clarity compared to diabetic control group [5]: higher clarity (less opacity)

N=C(N)NN [Aminoguanidine, aminoguanidine, reference compound]
amount of glycated haemoglobin (diabetic models): does not reduce
Percent Area of Chromatogram, HMW (ovalbumin; after 7 hours, [A] 600 mM): 0%
Percent Area of Chromatogram, LMW (ovalbumin; after 7 hours, [A] 600 mM): 69%
Percent Area of Chromatogram, Monomer (ovalbumin; after 7 hours, [A] 600 mM): 31%
Percent Area of Chromatogram, HMW (ovalbumin; after 7 hours, [B] 300 mn): 8%
Percent Area of Chromatogram, LMW (ovalbumin; after 7 hours, [B] 300 mn): 72%
Percent Area of Chromatogram, Monomer (ovalbumin; after 7 hours, [B] 300 mn): 20%
Percent Area of Chromatogram, HMW (ovalbumin; after 7 hours, [C] 100 mM): 0%
Percent Area of Chromatogram, LMW (ovalbumin; after 7 hours, [C] 100 mM): 49%
Percent Area of Chromatogram, Monomer (ovalbumin; after 7 hours, [C] 100 mM): 41%
Percent Area of Chromatogram, HMW (ovalbumin; after 7 hours, [D] 50 mM): 38%
Percent Area of Chromatogram, LMW (ovalbumin; after 7 hours, [D] 50 mM): 22%
Percent Area of Chromatogram, Monomer (ovalbumin; after 7 hours, [D] 50 mM): 40%
Percent Area of Chromatogram, HMW (ovalbumin; t0 hours, [A] to [D] 600-50 mM): 0%
Percent Area of Chromatogram, LMW (ovalbumin; t0 hours, [A] to [D] 600-50 mM): 0%
Percent Area of Chromatogram, Monomer (ovalbumin; t0 hours, [A] to [D] 600-50 mM): 100%
